# From PMC12959348 (Angewandte Chemie (International ed. in English), 2025)
# Columns and labels:
# [1] = tested on: bcl2 (DNA, G4) GGGCGCGGGAGGAATTGGGCGGG; experiment: fluorescence polarization (pomalidomide fluorescence); conditions: 100 mM K+ (KCl), 10 mM Li-cacodylate, pH 7.4, ligand 0.2 µM, per binding site (two sites per G4)
# [2] = tested on: dsDNA (DNA, hairpin) TATAGCTATATTTTTTTATAGCTATA; experiment: fluorescence polarization (intrinsic pomalidomide fluorescence); conditions: 100 mM KCl; 10 mM Li-cacodylate, pH 7.4; ligand 0.2 µM; per site
# [3] = tested on: ssDNA (DNA, single strand) CCCTAACCCTAACCCTAACCCTAA; experiment: as above; conditions: 100 mM KCl; 10 mM Li-cacodylate, pH 7.4; ligand 0.2 µM; per site
# [4] = tested on: telo24 (DNA, G4) TTAGGGTTAGGGTTAGGGTTAGGG; experiment: as above; conditions: 100 mM KCl; 10 mM Li-cacodylate, pH 7.4; ligand 0.2 µM; fit assumes two sites per G4; per site
# [5] = tested on: NRAS (RNA, G4) UGUGGGAGGGGCGGGUCUGGGUGC; experiment: as above; conditions: 100 mM KCl; 10 mM Li-cacodylate, pH 7.4; ligand 0.2 µM; fit assumes two sites per G4; per site
# [6] = tested on: TERRA (RNA, G4) UAAGGGUAAGGGUAAGGGUAAGGG; experiment: fluorescence polarization (pomalidomide fluorescence); conditions: 100 mM K+ (KCl), 10 mM Li-cacodylate, pH 7.4, ligand 0.2 µM, per binding site (two sites per G4)
# [7] = tested on: KRAS (DNA, G4) AGGGCGGTGTGGGAATAGGGAA; experiment: fluorescence polarization (intrinsic pomalidomide fluorescence); conditions: 100 mM KCl; 10 mM Li-cacodylate, pH 7.4; ligand 0.2 µM; fit assumes two sites per G4; per site
# [8] = tested on: bcl2 (DNA, G4) GGGCGCGGGAGGAATTGGGCGGG; experiment: as above; conditions: 100 mM KCl; 10 mM Li-cacodylate, pH 7.4; ligand 0.2 µM; fit assumes two sites per G4; per site
# [9] = tested on: VEGFR (DNA, G4) GGGTACCCGGGTGAGGTGCGGGGT; experiment: as above; conditions: 100 mM KCl; 10 mM Li-cacodylate, pH 7.4; ligand 0.2 µM; fit assumes two sites per G4; per site
# [10] = tested on: VEGF (DNA, G4) CGGGGCGGGCCTTGGGCGGGGT; experiment: as above; conditions: 100 mM KCl; 10 mM Li-cacodylate, pH 7.4; ligand 0.2 µM; fit assumes two sites per G4; per site
# [11] = tested on: c-kit1 (DNA, G4) AGGGAGGGCGCTGGGAGGAGGG; experiment: as above; conditions: 100 mM KCl; 10 mM Li-cacodylate, pH 7.4; ligand 0.2 µM; fit assumes two sites per G4; per site
# [12] = tested on: TERRA (RNA, G4) UAAGGGUAAGGGUAAGGGUAAGGG; experiment: as above; conditions: 100 mM KCl; 10 mM Li-cacodylate, pH 7.4; ligand 0.2 µM; fit assumes two sites per G4; per site
# [13] = tested on: PARP1 (DNA, G4) TGGGGTCCGAGGCGGGGCTTGGG; experiment: as above; conditions: 100 mM KCl; 10 mM Li-cacodylate, pH 7.4; ligand 0.2 µM; fit assumes two sites per G4; per site
# [14] = tested on: 19wt (DNA, G4) GGGGGAGGGGTACAGGGGTACAGGGG; experiment: as above; conditions: 100 mM KCl; 10 mM Li-cacodylate, pH 7.4; ligand 0.2 µM; fit assumes two sites per G4; per site
# cereblon (CRBN) = target: T1, cereblon (CRBN) (Homo sapiens, UniProt Q96SW2); experiment: TR-FRET displacement of thalidomide-red from Eu3+-cryptate-labeled CRBN; assay type: binding
# T1 construct: Eu3+-cryptate-labeled CRBN
# Excerpt: TR-FRET displacement of thalidomide-red from Eu3+-cryptate-labeled CRBN on cereblon (CRBN) | displacement of thalidomide-red and binding of 1a and 2a to CRBN.
# T1 sequence (Q96SW2 whole entry): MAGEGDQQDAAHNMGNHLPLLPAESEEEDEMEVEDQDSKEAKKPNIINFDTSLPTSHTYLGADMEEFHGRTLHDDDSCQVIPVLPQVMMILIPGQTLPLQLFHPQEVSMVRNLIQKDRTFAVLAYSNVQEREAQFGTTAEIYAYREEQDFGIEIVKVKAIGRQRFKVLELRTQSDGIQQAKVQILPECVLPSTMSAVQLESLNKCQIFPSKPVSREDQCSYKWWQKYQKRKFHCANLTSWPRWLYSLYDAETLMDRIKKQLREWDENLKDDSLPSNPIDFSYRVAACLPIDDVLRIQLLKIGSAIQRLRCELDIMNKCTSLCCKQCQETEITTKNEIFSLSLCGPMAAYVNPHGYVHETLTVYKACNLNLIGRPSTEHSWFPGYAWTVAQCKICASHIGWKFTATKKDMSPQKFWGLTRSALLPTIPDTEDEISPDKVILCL
Kd [1] [nM],Kd [2] [nM],Kd [3] [nM],Kd [4] [nM],Kd [5] [nM],Kd [6] [nM],Kd [7] [nM],Kd [8] [nM],Kd [9] [nM],Kd [10] [nM],Kd [11] [nM],Kd [12] [nM],Kd [13] [nM],Kd [14] [nM],IC50 (cereblon (CRBN)) [nM],SMILES
278 ± 258,> 1200,> 1200,155 ± 29,96 ± 28,110 ± 115,–,–,–,–,–,–,–,–,–,Cc1oc2nc1-c1nc(c(CCCNC(=O)CCOCCOCCOCCOCCNc3cccc4c3C(=O)N(C3CCC(=O)N(C)C3=O)C4=O)o1)-c1nc(co1)C(=O)N[C@@H](CCCCN)c1nc(co1)-c1nc(co1)-c1nc(co1)C(=O)N[C@H]2CCCCN (some centres unmarked)
–,> 1200,> 1200,33 ± 17,10 ± 5,–,19 ± 14,104 ± 53,46 ± 18,4 ± 3,38 ± 41,26 ± 22,39 ± 16,289 ± 184,–,Cc1oc2nc1-c1nc(c(CCCNC(=O)CNc3cccc4c3C(=O)N(C3CCC(=O)N(C)C3=O)C4=O)o1)-c1nc(co1)C(=O)N[C@@H](CCCCN)c1nc(co1)-c1nc(co1)-c1nc(co1)C(=O)N[C@H]2CCCCN (some centres unmarked)
–,> 1200,> 1200,108 ± 75,65 ± 2,–,45 ± 35,30 ± 13,27 ± 5,42 ± 38,39 ± 23,72 ± 39,42 ± 40,103 ± 27,61,Cc1oc2nc1-c1nc(c(CCCNC(=O)CNc3cccc4c3C(=O)N(C3CCC(=O)NC3=O)C4=O)o1)-c1nc(co1)C(=O)N[C@@H](CCCCN)c1nc(co1)-c1nc(co1)-c1nc(co1)C(=O)N[C@H]2CCCCN (some centres unmarked) [1a]
–,> 1200,> 1200,356 ± 210,68 ± 56,–,103 ± 45,266 ± 178,802 ± 325,46 ± 23,178 ± 22,5 ± 4,817 ± 447,3402 ± 436,90,Cc1oc2nc1-c1nc(c(CCCNC(=O)CCOCCOCCOCCOCCNc3cccc4c3C(=O)N(C3CCC(=O)NC3=O)C4=O)o1)-c1nc(co1)C(=O)N[C@@H](CCCCN)c1nc(co1)-c1nc(co1)-c1nc(co1)C(=O)N[C@H]2CCCCN (some centres unmarked) [2a]
